Results from patent US8710068B2, “Method of treating cancer using a survivin inhibitor” (The Trustees Of The University Of Pennsylvania, priority 2009, dated 2014).

Assays:
HeLa cells [1] = test: Cell cycle analysis of DNA content by PI staining and FACS, HeLa; type: cell-based, human; conditions: for accumulation of cells in the G2/M stage: HeLa, 15 hours, FACS DNA content; for block of cells in mitosis: FACS analysis and immunofluorescence studies
Protocol: FIG. 7 illustrates the effect of S2 or S12 on cell cycle progression. HeLa cells were treated with S2, S12, S10, S1 (control compound), or DMSO (control), propidium iodide (PI) staining and FACS analysis were performed to quantify the DNA content of cells.
FIG. 9 illustrates the effect of S12 on mitosis. (A) HeLa cells were treated with S12, S2 or DMSO for 15 hours. The cells were then fixed and subjected to immunostaining using antibodies specific for Aurora B (green) and Survivin (red). DNA was stained with DAPI. Chromosome misalignment is indicated with the arrowheads. (B) Percentage of S12-treated cells in mitosis, in metaphase, in anaphase/telophase, or with misaligned chromosomes. (C) Percentage of S2-treated cells in mitosis, in metaphase, in anaphase/telophase, or with misaligned chromosomes. (D) HeLa cells were treated with S12 (10 μg/ml) or DMSO (control) for 15 hours. Cells were examined by PI staining of DNA content by FACS analysis.
FIG. 17 illustrates (A) FACS analysis of DNA content of HeLa cells treated with SBDO3. Note the accumulation of cells at the G2/M stage. Cell death was also observed (sub-G1 population); (B) Immuno-fluorescence microscopy analysis of cell treated with SBDO3. Note that the microtubule bundles of the mitotic spindle are disorganized. The chromosomes are not aligned properly and cells cannot go through metaphase.
The candidate Survivin-targeting molecules identified by the virtual screen were examined for the ability to inhibit cell proliferation and mitosis. HeLa cells were treated with the compounds at various concentrations for 15 hours followed by examination of the DNA content by FACS analysis. […] The effects of S2 inflicted on cell proliferation and viability are consistent with the anticipated outcome caused by the ablation of Survivin functions. We have extended these studies to test a number of molecules that are structurally similar to S2, including S10, S11, S12 and S13. […] S12 affected cell proliferation and viability, consistent with the anticipated outcome caused by ablation of Survivin functions.
We analyzed distribution of cells in the different stages of the cell cycle by FACS. […] In addition, the inhibitory effect of SBDO3 is dose dependent (FIG. 17A).
We also conducted immuno-fluorescence studies on SBDO3 treated HeLa cells.

[2] = system: AsPC1 pancreatic cancer cells; test: MTT tumor cell proliferation assay, AsPC1; type: cell-based, human; conditions: AsPC1, 5, 10, 20, or 50 μg/ml for 48 hours
Protocol: (§1) FIG. 3 illustrates the effect of S2 and its analogs on tumor cell proliferation. Cells were treated with DMSO or Survivin targeting molecules at the indicated concentration for 48 hours. The percentage of viable cells was evaluated by MTT assay. (A) AsPC1; (B) HeLa; (C) SKBR3; (D) DAOY.
(§2) FIG. 18 illustrates the effect of SBDO3, SN2, or SDC1 on tumor cell proliferation. (A) AsPC1 cells were treated with DMSO or the Survivin targeting molecules SBDO3 or SN2 at the indicated concentration for 48 hours. (B) SKBR3 cells were treated with DMSO or SDC1 for 48 hours. The percentage of viable cells was evaluated by MTT assay.
(§3) S2 and its analogs (S10, S11, S12, and S13) were tested for the ability to inhibit tumor cell proliferation by MTT assay. The AsPC1 pancreatic cancer cells were treated with DMSO, a control molecule SC2, or the Survivin-targeting compounds at the concentration of 5, 10, 20, or 50 μg/ml for 48 hours. The number of viable cells was evaluated by MTT.
(§4) SBDO3, SN2 and SDC1 were tested for the ability to inhibit tumor cell proliferation by MTT assay. The AsPC1 pancreatic cancer cells were treated with DMSO or the Survivin-targeting compounds at the concentration of 5, 10, 20, or 50 μg/ml for 48 hours. The number of viable cells was evaluated by MTT.

HeLa cells [3] = test: BrdU incorporation DNA synthesis assay (FACS), HeLa; type: cell-based, human; conditions: 4 hours treatment then one-hour BrdU
Protocol: BrdU-labeled cells were analyzed by FACS. The percentage of BrdU-positive cells is indicated.
HeLa cells were treated with S12, aphidicolin, or DMSO (control) for 4 hours. BrdU was then added to the medium followed by an additional incubation of 1 hour. The amount of BrdU was examined by staining with anti-BrdU antibody and FACS analysis. The percentage of BrdU-positive cells is shown.
To establish the specificity of the biological activities of the Survivin targeting we examined whether the compounds affect DNA synthesis. HeLa cells were treated with Aphidicolin, S2 or DMSO for 4 hours, followed by one-hour incubation with BrdU. The cells were then collected, fixed and stained with FITC-labeled anti-BrdU antibody.

SKBR3 breast cancer cell = test: MTT tumor cell proliferation assay, SKBR3; type: cell-based, human; conditions: SKBR3, 48 hours
Protocol: as §1, §2, §3, §4

Survivin protein = target: T1, Survivin protein (Homo sapiens, UniProt O15392); test: Isothermal titration calorimetry (ITC) binding to native Survivin; conditions: ITC, in words
T1 construct: made in house; host or cells: bacteria
Protocol: FIG. 5 illustrates an analysis of S12-Survivin binding with isothermal titration calorimetry (ITC). Single-site point mutagenesis was performed to create the Survivin mutants F86A and V89Y. The native and the mutant proteins were produced and purified from bacteria.
FIG. 16 illustrates the isothermal titration calorimetry profile of the binding of SBDO3 to the Survivin homodimer.
In order to examine the specificity of the binding, we generated point mutations on the Survivin protein at the site presumably targeted by S12. The two mutations were substitutions of phenylalanine 86 with alanine (F86A) and valine 89 with tyrosine (V89Y). These two altered sites are also adjacent to the interface involved in dimerization of the Survivin protein. Based on structural analyses, we predict that alterations of either of these two amino acid residues may abolish the binding of S12 without affecting the overall structure of the Survivin protein.
We tested the binding of the Survivin target molecules to Survivin by isothermal titration calorimetry.

T1 sequence (O15392 whole entry): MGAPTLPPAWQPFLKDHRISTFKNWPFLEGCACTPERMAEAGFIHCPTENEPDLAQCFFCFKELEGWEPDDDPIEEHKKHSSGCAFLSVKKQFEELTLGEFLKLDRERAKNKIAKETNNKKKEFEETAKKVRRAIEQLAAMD

SMILES | accumulation of cells in the G2/M stage (HeLa cells [1]) | inhibition of cell proliferation / cell viability [2] | DNA synthesis (BrdU incorporation) (HeLa cells [3]) | block of cells in mitosis (HeLa cells [1]) | inhibition of proliferation (SKBR3 breast cancer cell) | binding to the Survivin protein (Survivin protein)
O=C(CC1(O)C(=O)Nc2ccc(Br)cc21)c1ccc(F)cc1 (stereo not shown) [S10] | exhibit the ability to arrest the cells at the G2/M stage | can inhibit cell proliferation and reduce cell viability in a dose-dependent manner | – | – | – | –
C[C@@]1(CO)[C@H](O)CC[C@@]2(C)[C@H]1CC[C@H]1C[C@@H]3C[C@@]12CC[C@]3(O)CO [aphidicolin, reference compound] | – | – | inhibits DNA replication | – | – | –
O=C(O)c1ccccc1C(=O)c1ccc(Sc2ccccc2)c([N+](=O)[O-])c1 [SDC1] | – | can inhibit cell proliferation and reduce cell viability in a dose-dependent manner | – | can also block cells in mitosis | can inhibit proliferation | can bind to the Survivin protein
COc1ccc(C2C(C#N)=C(N)OC3=C2C(=O)CC(C)(C)C3)cc1OCc1ccccc1 (stereo not shown) [SN2] | – | can inhibit cell proliferation and reduce cell viability in a dose-dependent manner | – | can also block cells in mitosis | – | –
O=C(CC1(O)C(=O)Nc2ccc(Br)cc21)c1cccc([N+](=O)[O-])c1 (stereo not shown) [S11] | exhibit the ability to arrest the cells at the G2/M stage | can inhibit cell proliferation and reduce cell viability in a dose-dependent manner | – | – | – | –
O=C(CC1(O)C(=O)Nc2ccccc21)c1ccccc1 (stereo not shown) [S13] | exhibit the ability to arrest the cells at the G2/M stage | can inhibit cell proliferation and reduce cell viability in a dose-dependent manner | – | – | – | –
